# Patent publication US20260021071A1, “SMALL MOLECULE BROAD-SPECTRUM ANTIBIOTICS” (University of Florida Research Foundation, Incorporated, priority 2022, published 2026)
# System: not listed separately
# Assay: in vitro
# Conditions: human, wild-type HepG2 cells (ATCC)
row,SMILES,CC50 [µM]
1,Cc1cc(F)ccc1NC(=S)Nc1ccc(S(=O)(=O)Nc2ncccn2)cc1 [Compound 11],> 24.8
2,O=S(=O)(Nc1nccs1)c1ccc(NC(=S)Nc2ccccc2)cc1 [Compound 9],> 24.8
3,COc1cccc(CN2CCC3(CC2)NCCc2c3[nH]c3ccccc23)c1 [Compound 17],> 24.8
4,Cc1ccc(Nc2nc3nonc3nc2NC(C)C)cc1C [Compound 4],11.4
5,N#Cc1ccc(NC(=O)Nc2cccc(Cl)c2)cc1 [Compound 7],23.8
6,Cc1c(Nc2nc3nonc3nc2Nc2ccc(F)cc2)c(=O)n(-c2ccccc2)n1C [Compound 5],20.6
7,CCOC(=O)c1cccc(-n2cc(Nc3nnnn3-c3ccccc3)cn2)c1 [Compound 14],> 24.8
8,O=C(CCn1cnc2ccccc2c1=O)Nc1cccc(Cl)c1 [Compound 15],> 24.8
9,c1ccc(CNc2ncnc3c2[nH]c2ccccc23)cc1 [Compound 16],> 24.8
10,N#Cc1cccc(NC(=O)Nc2cccc(Cl)c2)c1 [Compound 6],21.1
11,O=[N+]([O-])c1c(Nc2ccccc2)cc(Cl)c2nonc12 [Compound 2],> 20
12,O=S(=O)(Nc1nccs1)c1ccc(NC(=S)Nc2ccc(F)cc2)cc1 [Compound 10],> 24.8
13,CNc1cc(Cl)c2nonc2c1[N+](=O)[O-] [Compound 3],> 25.4

# System: PAO200 P. aeruginosa bacteria, the MexAB-OprM efflux pump minus strain of PAO1
# Assay: microbe, parasite or virus in culture
# Assay type: cell-based
# Conditions: Pseudomonas aeruginosa, PAO1, read-out: PAO200 IC50 (μM)
row,SMILES,IC50 [µM]
1,Cc1cc(F)ccc1NC(=S)Nc1ccc(S(=O)(=O)Nc2ncccn2)cc1 [Compound 11],28.2
2,O=S(=O)(Nc1nccs1)c1ccc(NC(=S)Nc2ccccc2)cc1 [Compound 9],12.3
3,COc1cccc(CN2CCC3(CC2)NCCc2c3[nH]c3ccccc23)c1 [Compound 17],39
4,Cc1ccc(Nc2nc3nonc3nc2NC(C)C)cc1C [Compound 4],24.7
5,O=C(Nc1ccc([N+](=O)[O-])cc1)NC(C(F)(F)F)C(F)(F)F [Compound 8],31.5
6,N#Cc1ccc(NC(=O)Nc2cccc(Cl)c2)cc1 [Compound 7],24.7
7,Cc1c(Nc2nc3nonc3nc2Nc2ccc(F)cc2)c(=O)n(-c2ccccc2)n1C [Compound 5],39.2
8,CCOC(=O)c1cccc(-n2cc(Nc3nnnn3-c3ccccc3)cn2)c1 [Compound 14],20.5
9,O=C(CCn1cnc2ccccc2c1=O)Nc1cccc(Cl)c1 [Compound 15],2.7
10,c1ccc(CNc2ncnc3c2[nH]c2ccccc23)cc1 [Compound 16],41.5
11,N#Cc1cccc(NC(=O)Nc2cccc(Cl)c2)c1 [Compound 6],24.7
12,COc1cc(NC(=O)c2cccc(-n3cc(Nc4nnnn4-c4ccccc4)cn3)c2)ccc1N1CCOCC1 [Compound 13],13.9
13,O=[N+]([O-])c1c(Nc2ccccc2)cc(Cl)c2nonc12 [Compound 2],1.3
14,O=S(=O)(Nc1nccs1)c1ccc(NC(=S)Nc2ccc(F)cc2)cc1 [Compound 10],12.5
15,O=C(Nc1ccc(N2CCOCC2)cc1)c1cccc(-n2cc(Nc3nnnn3C3CCCCC3)cn2)c1 [Compound 12],22.3

# System: PAO1
# Assay: microbe, parasite or virus in culture
# Assay type: cell-based
# Conditions: Pseudomonas aeruginosa, PAO1, read-out: PAO01 IC50 (μM)
row,SMILES,IC50 [µM]
1,Cc1cc(F)ccc1NC(=S)Nc1ccc(S(=O)(=O)Nc2ncccn2)cc1 [Compound 11],≥ 55
2,O=S(=O)(Nc1nccs1)c1ccc(NC(=S)Nc2ccccc2)cc1 [Compound 9],≥ 55
3,COc1cccc(CN2CCC3(CC2)NCCc2c3[nH]c3ccccc23)c1 [Compound 17],28.2
4,Cc1ccc(Nc2nc3nonc3nc2NC(C)C)cc1C [Compound 4],≥ 55
5,O=C(Nc1ccc([N+](=O)[O-])cc1)NC(C(F)(F)F)C(F)(F)F [Compound 8],39.5
6,N#Cc1ccc(NC(=O)Nc2cccc(Cl)c2)cc1 [Compound 7],≥ 55
7,Cc1c(Nc2nc3nonc3nc2Nc2ccc(F)cc2)c(=O)n(-c2ccccc2)n1C [Compound 5],42
8,CCOC(=O)c1cccc(-n2cc(Nc3nnnn3-c3ccccc3)cn2)c1 [Compound 14],≥ 55
9,O=C(CCn1cnc2ccccc2c1=O)Nc1cccc(Cl)c1 [Compound 15],38.6
10,c1ccc(CNc2ncnc3c2[nH]c2ccccc23)cc1 [Compound 16],≥ 55
11,N#Cc1cccc(NC(=O)Nc2cccc(Cl)c2)c1 [Compound 6],55
12,COc1cc(NC(=O)c2cccc(-n3cc(Nc4nnnn4-c4ccccc4)cn3)c2)ccc1N1CCOCC1 [Compound 13],95.7
13,O=[N+]([O-])c1c(Nc2ccccc2)cc(Cl)c2nonc12 [Compound 2],18
14,O=S(=O)(Nc1nccs1)c1ccc(NC(=S)Nc2ccc(F)cc2)cc1 [Compound 10],≥ 55
15,O=C(Nc1ccc(N2CCOCC2)cc1)c1cccc(-n2cc(Nc3nnnn3C3CCCCC3)cn2)c1 [Compound 12],103

# System: NRS135 gram-positive S. aureus strain expressing NorA::tetM
# Assay: microbe, parasite or virus in culture
# Assay type: cell-based
# Conditions: Staphylococcus aureus, NRS135, read-out: NRS135 IC50 (μM)
row,SMILES,IC50 [µM]
1,Cc1cc(F)ccc1NC(=S)Nc1ccc(S(=O)(=O)Nc2ncccn2)cc1 [Compound 11],≥ 55
2,O=S(=O)(Nc1nccs1)c1ccc(NC(=S)Nc2ccccc2)cc1 [Compound 9],21.9
3,COc1cccc(CN2CCC3(CC2)NCCc2c3[nH]c3ccccc23)c1 [Compound 17],≥ 55
4,Cc1ccc(Nc2nc3nonc3nc2NC(C)C)cc1C [Compound 4],26.5
5,O=C(Nc1ccc([N+](=O)[O-])cc1)NC(C(F)(F)F)C(F)(F)F [Compound 8],18.1
6,N#Cc1ccc(NC(=O)Nc2cccc(Cl)c2)cc1 [Compound 7],9.77
7,Cc1c(Nc2nc3nonc3nc2Nc2ccc(F)cc2)c(=O)n(-c2ccccc2)n1C [Compound 5],9.37
8,CCOC(=O)c1cccc(-n2cc(Nc3nnnn3-c3ccccc3)cn2)c1 [Compound 14],43.6
9,O=C(CCn1cnc2ccccc2c1=O)Nc1cccc(Cl)c1 [Compound 15],47.4
10,c1ccc(CNc2ncnc3c2[nH]c2ccccc23)cc1 [Compound 16],≥ 55
11,N#Cc1cccc(NC(=O)Nc2cccc(Cl)c2)c1 [Compound 6],19.8
12,COc1cc(NC(=O)c2cccc(-n3cc(Nc4nnnn4-c4ccccc4)cn3)c2)ccc1N1CCOCC1 [Compound 13],15.6
13,O=[N+]([O-])c1c(Nc2ccccc2)cc(Cl)c2nonc12 [Compound 2],2.47
14,O=S(=O)(Nc1nccs1)c1ccc(NC(=S)Nc2ccc(F)cc2)cc1 [Compound 10],17.5
15,O=C(Nc1ccc(N2CCOCC2)cc1)c1cccc(-n2cc(Nc3nnnn3C3CCCCC3)cn2)c1 [Compound 12],38.7

# System: E. coli W3110 a TolC::Tn10 inclusive strain
# Assay: microbe, parasite or virus in culture
# Assay type: cell-based
# Conditions: Escherichia coli, read-out: W3110 IC50 (μM)
row,SMILES,IC50 [µM]
1,Cc1cc(F)ccc1NC(=S)Nc1ccc(S(=O)(=O)Nc2ncccn2)cc1 [Compound 11],7.08
2,O=S(=O)(Nc1nccs1)c1ccc(NC(=S)Nc2ccccc2)cc1 [Compound 9],3.8
3,COc1cccc(CN2CCC3(CC2)NCCc2c3[nH]c3ccccc23)c1 [Compound 17],47.4
4,Cc1ccc(Nc2nc3nonc3nc2NC(C)C)cc1C [Compound 4],6.29
5,O=C(Nc1ccc([N+](=O)[O-])cc1)NC(C(F)(F)F)C(F)(F)F [Compound 8],8.89
6,N#Cc1ccc(NC(=O)Nc2cccc(Cl)c2)cc1 [Compound 7],3.82
7,Cc1c(Nc2nc3nonc3nc2Nc2ccc(F)cc2)c(=O)n(-c2ccccc2)n1C [Compound 5],3.77
8,CCOC(=O)c1cccc(-n2cc(Nc3nnnn3-c3ccccc3)cn2)c1 [Compound 14],14.6
9,O=C(CCn1cnc2ccccc2c1=O)Nc1cccc(Cl)c1 [Compound 15],0.873
10,c1ccc(CNc2ncnc3c2[nH]c2ccccc23)cc1 [Compound 16],15.9
11,N#Cc1cccc(NC(=O)Nc2cccc(Cl)c2)c1 [Compound 6],5.99
12,COc1cc(NC(=O)c2cccc(-n3cc(Nc4nnnn4-c4ccccc4)cn3)c2)ccc1N1CCOCC1 [Compound 13],8.71
13,O=[N+]([O-])c1c(Nc2ccccc2)cc(Cl)c2nonc12 [Compound 2],15.2
14,O=S(=O)(Nc1nccs1)c1ccc(NC(=S)Nc2ccc(F)cc2)cc1 [Compound 10],4
15,O=C(Nc1ccc(N2CCOCC2)cc1)c1cccc(-n2cc(Nc3nnnn3C3CCCCC3)cn2)c1 [Compound 12],29.1
